Experimental data reported in patent US20260325464A1, “COMPOSITIONS FOR MODULATING THE EXPRESSION OF AQUAPORINS IN NEURODEGENERATIVE DISORDERS” (priority 2023, published 2026).

Columns and labels:
Assay type in all cases: in vivo, rat
[1] = system: substantia nigra; assay: Brain histopathology of substantia nigra, reserpine Parkinson's model
Excerpt: The brain histopathology was done for all the experimental groups. The brain tissue was fixed in 10% buffered neutral formalin solution. The tissue was embedded in paraffin, sectioned at […] stained with hematoxylin and eosin (H&E). The sections were examined under light microscope to study the architecture of the brain tissue, and then photomicrographs were taken (Fischer A H, Jacobson K A, Rose J, Zeller R. Hematoxylin and eosin staining of tissue and cell sections. CSH Protoc. 2008:1;pdb.prot4986. doi: 10.1101/pdb.prot4986).
(§1) The induction of Parkinson's disease and measurement of other parameters were done as per the reported protocol (Santos et al., Cognitive, motor and tyrosine hydroxylase temporal impairment in a model of parkinsonism induced by reserpine. Behav Brain Res. 2013; 253:68-77 and Shishehbore et al. A novel kinetic spectrophotometric method for the determination of dopamine in biological and pharmaceutical samples. J Chem. 2013; 2013:1-6). Induction of Parkinson's disease was done by administering Resperine, which inhibits the monoamine vesicular transporters, thus decreasing the levels of monoamine neurotransmitters in the brain. Following pretreatment for 14 days with Gingerenone A, the rat groups received subcutaneous injections of reserpine (4 mg/kg) for the final five days of the treatment regimen. Resperine (5 mg) was dissolved in 1 ml of 1% acetic acid and then diluted tenfold with distilled water to achieve a final concentration of 500 μg/ml. The normal control group received saline with 1% acetic acid for 14 days, administered from day 10 to day 14. Thirty minutes following the administration of reserpine on the 14th day, behavioural assessments were conducted using the Open Field test, Y Maze, and Catalepsy tests to evaluate changes. […] Upon completion of the study, brains were harvested for biochemical analyses and histopathological studies. The experimental group is depicted in table 10.

[2] = system: Fibrinogen; assay: Inflammatory marker fibrinogen (ELISA), AlCl3 Alzheimer's model; settings: for Fibrinogen: p.o. + AlCl3 (100 mg/kg, i.p.), Mean ± SEM, n = 6
Excerpt: The inflammatory markers Fibrinogen, IL-1β were estimated using ELISA kit (Krishgen Biosystems, India).

[3] = system: Alzheimer's disease; assay: Elevated plus maze (EPM) test in rats with AlCl3-induced Alzheimer's disease; settings: for EPM at 16th day Transfer Latency / EPM at 17th day Transfer Latency: p.o. + AlCl3 (100 mg/kg, i.p.), Mean ± SEM, n = 6
Procedure: Elevated plus maze (EPM)—Elevated plus maze (EPM)—This test was performed as per reported protocol (Bhuvanendran et al., Amelioration of cognitive deficit by Embelin in a Scopolamine-induced Alzheimer's disease-like condition in a rat model. Front Pharmacol. 2018:9(6):1-12 and Biradar et al., (2020) Experimental validation and network pharmacology evaluation to decipher the mechanism of action of Erythrina variegata L. bark against scopolamine-induced memory impairment in rats. Adv Tradit Med. 2020:26:1-4). EPM contains 2 closed and 2 open arms (four arms; equal dimensions of 50×10 cm). These 4 arms connect at central with a 10×10 cm square gap as an initial point. The transfer latency (TL) was recorded via stopwatch by keeping rats independently toward one side of the open arm. The EPM TL cut-off was set to 60 s throughout the study. […] Index of memory improvement is measured as a drop of transfer Latency (TL) by test drug.
The elevated plus maze is a test that is widely used to assess the anti-anxiety effects of test substances. As the test measures open arm activity, an increase in open arm activity (duration and/or entries) reflects anti-anxiety behaviour (Walf et al., The use of the elevated plus maze as an assay of anxiety-related behavior in rodents, Nat Protoc. 2007; 2(2): 322-328). In the present study, inducing Alzheimer's in the animals increased their anxiety which was reduced by the administration on Gingerenone A (Table 3).

[4] = system: Dopamine; assay: Dopamine in brain (kinetic spectrophotometric), reserpine Parkinson's model; settings: for Dopamine: p.o. + Reserpine (4 mg/kg, s.c.), brain, Mean ± SEM, n = 6
Excerpt: as §1
Dopamine—Studies have shown that symptoms of Parkinson's develop in patients with an 80 percent or greater loss of dopamine-producing cells in the substantia nigra. Normally, dopamine operates in a delicate balance with other neurotransmitters to help coordinate the millions of nerve and muscle cells involved in movement. Neurons of the substantia nigra communicate with neurons of the basal ganglia by liberating the neurotransmitter dopamine (DA). Such an interaction at the biochemical level is responsible for the fine tuning of the movements. The proposed method for the estimation of dopamine is based on inhibitory effect of dopamine on the oxidation of thionine by bromate in acidic media. The change in absorbance was recorded spectrophotometrically at 601 nm (Shishehbore et al., Novel Kinetic Spectrophotometric Method for the Determination of Dopamine in Biological and Pharmaceutical Samples. 2013. Article ID 819460, https://doi.org/10.1155/2013/819460).

SMILES: COc1cc(CC/C=C/C(=O)CCc2ccc(O)c(OC)c2)ccc1O [Gingerenone A]
- histopathology of substantia nigra ([1]; 5 mg/kg, FIG. 12): both normal [FIG. 12A—Arrow] and degenerative neuronal cells having dark nucleus with mild basophilic cytoplasm [FIG. 12B—Arrow] and focal reactive microgliosis. Scant inflammation was noted at places. The neuropils had focal vacuoles
- histopathology of substantia nigra ([1]; 10 mg/kg, FIG. 13): both normal [FIG. 13A—Arrow] and degenerative neuronal cells having variable darkly stained nucleus [FIG. 13B—Arrow] with mild basophilic cytoplasm and scant inflammation
- histopathology of substantia nigra ([1]; 20 mg/kg, FIG. 14): both normal [FIG. 14A—Arrow] and degenerative neuronal cells having variable darkly stained nucleus [14B—Arrow] with mild basophilic cytoplasm and scant inflammation
- Fibrinogen ([2]; 5 mg/kg): 22.80 ± 0.738 ng/mL
- Fibrinogen ([2]; 10 mg/kg): 19.05 ± 0.232 ng/mL
- Fibrinogen ([2]; 20 mg/kg): 16.65 ± 0.431 ng/mL
- fibrinogen (in words) ([2]; AlCl3 model, Table 9): significantly reduced
- EPM at 16th day Transfer Latency ([3]; 5 mg/kg): 25.70 ± 0.88 s
- EPM at 17th day Transfer Latency ([3]; 5 mg/kg): 25.21 ± 1.04 s
- EPM at 16th day Transfer Latency ([3]; 10 mg/kg): 21.76 ± 1.03 s
- EPM at 17th day Transfer Latency ([3]; 10 mg/kg): 19.37 ± 0.47 s
- EPM at 16th day Transfer Latency ([3]; 20 mg/kg): 19.38 ± 0.87 s
- EPM at 17th day Transfer Latency ([3]; 20 mg/kg): 18.59 ± 0.86 s
- anxiety in EPM (in words) ([3]; AlCl3 model, Table 3): reduced
- Dopamine ([4]; 5 mg/kg): 0.124 ± 0.007 µg/mL
- Dopamine ([4]; 10 mg/kg): 0.142 ± 0.011 µg/mL
- Dopamine ([4]; 20 mg/kg): 0.141 ± 0.011 µg/mL
- dopamine levels (in words) ([4]; reserpine model, Table 14): increased
